Tests used:
Type in all cases: in vivo
[1] = tested on: Solanum nigrum; experiment: Example B: post-emergence herbicidal application, pot test
From the text: (§1) Dans des pots de 7 x 7 x 8 cm remplis de terre agricole légère, on sème un nombre de graines déterminé en fonction de l'espèce végétale et de la grosseur de la graine.
(§2) On recouvre ensuite les graines d'une couche de terre d'environ 3 mm d'épaisseur et on laisse germer la graine jusqu'à ce qu'elle donne naissance à une plantule au stade convenable. Le stade de traitement pour les graminées est le stade "deuxième feuille en formation ". Le stade de traitement pour les dicotylédones, est le stade "cotylédons étalés, première feuille vraie en développement".
(§3) Les pots sont alors traités par pulvérisation de bouillie en quantité correspondant à une dose volumique d'application de 500 l/ha et contenant la matière active à la concentration désirée.
(§4) La bouille a été préparée de la même manière qu'à l'exemple A.
(§5) Les pots traités sont ensuite placés dans des bacs destinés à recevoir l'eau d'arrosage, en subirrigation, et maintenus pendant 24 jours à température ambiante sous 70 % d'humidité relative.
(§6) Au bout de 24 jours, on mesure un pourcentage (D) de destruction du nombre de pieds dans le pot traité par rapport au nombre de plantes dans les pots non traités (témoin). On mesure, sur les plantes traitées restantes, le pourcentage de réduction de taille (RT) par rapport aux plantes témoin.
(§7) Le pourcentage du volume foliaire non détruit par le produit est donc donné par la formule : [formula]
(§8) Cette valeur A est transformée en notation de 0 à 5 selon l'échelle suivante :
(§9) Les résultats obtenus sont présentés après le tableau A pour des doses d'application de 4000 g/ha.

[2] = tested on: Echinochloa crusgalli; experiment: as above
From the text: as §1, §2, §3, §4, §5, §6, §7, §8, §9

[3] = tested on: Digitaria sanguinalis; experiment: as above
From the text: as §1, §2, §3, §4, §5, §6, §7, §8, §9

[4] = tested on: Ipomea purpurea; experiment: as above
From the text: as §1, §2, §3, §4, §5, §6, §7, §8, §9

[5] = tested on: Lolium multiflorum; experiment: as above
From the text: as §1, §2, §3, §4, §5, §6, §7, §8, §9

[6] = tested on: Sinapis alba; experiment: as above
From the text: as §1, §2, §3, §4, §5, §6, §7, §8, §9

[7] = tested on: Solanum nigrum; experiment: Example C: selectivity test in major crops, post-emergence application
From the text: as §1
as §2, with “formation".” for “formation ".”
as §3
(§10) La bouillie a été préparée de la même manière qu'à l'exemple A.
as §5, §6
(§11) Le pourcentage de volume foliaire non détruit par le produit est donc donné par la formule : [formula]
as §8
(§12) Ainsi, un produit est jugé comme sélectif vis à vis de la culture lorsque la valeur A notée est de 0 ou 1.
(§13) Les résultats obtenus sont présentés dans l'exemple C pour des doses d'application comprises entre 0,5 et 4 kg de matière active par hectare selon les produits.

[8] = tested on: Oryza sativa; experiment: as above; settings: crop (Riz), dose 2 kg/ha, 24 days, score 0-5, 0 or 1 = selective; further: ranges in brackets are in %
From the text: as §1
as §2, with “formation".” for “formation ".”
as §3, §10, §5, §6, §11, §8, §12, §13

[9] = tested on: Sesbania exaltata; experiment: as above
From the text: as §1
as §2, with “formation".” for “formation ".”
as §3, §10, §5, §6, §11, §8, §12, §13

[10] = tested on: Triticum aestivum; experiment: as above; settings: crop (Blé), dose 2 kg/ha, 24 days, score 0-5, 0 or 1 = selective; further: ranges in brackets are in %
From the text: as §1
as §2, with “formation".” for “formation ".”
as §3, §10, §5, §6, §11, §8, §12, §13

[11] = tested on: Viola tricolor; experiment: as above
From the text: as §1
as §2, with “formation".” for “formation ".”
as §3, §10, §5, §6, §11, §8, §12, §13

[12] = tested on: Xanthium pennsylvanicum; experiment: as above
From the text: as §1
as §2, with “formation".” for “formation ".”
as §3, §10, §5, §6, §11, §8, §12, §13

[13] = tested on: Ipomea pupurea; experiment: as above
From the text: as §1
as §2, with “formation".” for “formation ".”
as §3, §10, §5, §6, §11, §8, §12, §13

[14] = tested on: Zea mays; experiment: as above; settings: crop (Maïs), dose 2 kg/ha, 24 days, score 0-5, 0 or 1 = selective; further: ranges in brackets are in %
From the text: as §1
as §2, with “formation".” for “formation ".”
as §3, §10, §5, §6, §11, §8, §12, §13

[15] = 4 kg/ha, rated after 24 days, score 0-5 from % leaf volume not destroyed
[16] = weed, dose 1 kg/ha, 24 days, score 0-5

Row | Compound | ACTIVITE DE POST-LEVEE SOL ([1]; 4000 g/ha, 576 h) | ACTIVITE DE POST-LEVEE ECH ([2]; 4000 g/ha, 576 h) | ACTIVITE DE POST-LEVEE DIG ([3]; 4000 g/ha, 576 h) | ACTIVITE DE POST-LEVEE IPO ([4]; 4000 g/ha, 576 h) | ACTIVITE DE POST-LEVEE LOL ([5]; 4000 g/ha, 576 h) | ACTIVITE DE POST-LEVEE SIN ([6]; 4000 g/ha, 576 h) | further results
1 | CN(C)S(=O)(=O)n1nc(-c2ccc(Cl)cc2Cl)nc1-c1ncccc1C(=O)O [compound 3] | 3 (30 à 50) | 0 (90 à 100) | 0 (90 à 100) | 2 (50 à 70) | 0 (90 à 100) | 2 (50 à 70) | 
2 | CCN(CC)S(=O)(=O)n1nc(-c2ccccc2)nc1-c1ncccc1C(=O)O [compound 4] | 1 (70 à 90) | 3 (30 à 50) | 3 (30 à 50) | 2 (50 à 70) |  | 2 (50 à 70) | 
3 | CN(C)S(=O)(=O)n1nc(-c2ccccc2)nc1-c1ncccc1C(=O)O [compound 6] | 5 (O à 10) | 0 (90 à 100) | 0 (90 à 100) | 4 (10 à 30) |  | 5 (O à 10) | ACTIVITE HERBICIDE DE POST LEVEE S O L ([7]; 2000 g/ha, 576 h): 5 (O à 10); ACTIVITE HERBICIDE DE POST LEVEE O R Y [8]: 0 (90 à 100); ACTIVITE HERBICIDE DE POST LEVEE S E S ([9]; 2000 g/ha, 576 h): 5 (O à 10); ACTIVITE HERBICIDE DE POST LEVEE T R Z [10]: 0 (90 à 100); ACTIVITE HERBICIDE DE POST LEVEE V I O ([11]; 2000 g/ha, 576 h): 4 (10 à 30); ACTIVITE HERBICIDE DE POST LEVEE X A N ([12]; 2000 g/ha, 576 h): 4 (10 à 30); ACTIVITE HERBICIDE DE POST LEVEE I P O ([13]; 2000 g/ha, 576 h): 5 (O à 10); ACTIVITE HERBICIDE DE POST LEVEE Z E A [14]: 0 (90 à 100)
4 | CN(C)S(=O)(=O)n1nc(C(C)(C)C)nc1-c1ncccc1C(=O)O [compound 12] | 4 (10 à 30) | 0 (90 à 100) | 0 (90 à 100) | 3 (30 à 50) | 0 (90 à 100) | 4 (10 à 30) | 
5 | O=C(O)c1cccnc1-c1nc(-c2ccccc2)nn1S(=O)(=O)N1CCCC1 [compound 15] | 1 (70 à 90) | 3 (30 à 50) | 3 (30 à 50) | 2 (50 à 70) | 3 (30 à 50) | 1 (70 à 90) | 
6 | COC(=O)c1cccnc1-c1nc(-c2ccccc2)nn1S(=O)(=O)c1ccccc1Cl [compound 24] | 3 (30 à 50) | 0 (90 à 100) | 0 (90 à 100) | 3 (30 à 50) | 0 (90 à 100) | 3 (30 à 50) | 
7 | O=C(O)c1cccnc1-c1n[nH]c(-c2ccccc2)n1 [compound 42, 3 - (3 - carboxy 2 - pyridyl) 5 - phényl 1,2,4 - triazole] |  |  |  |  |  |  | ACTIVITE DE POST-LEVEE ECH [2, 15]: 2 (50 à 70); ACTIVITE DE POST-LEVEE IPO [4, 15]: 4 (10 à 30); ACTIVITE DE POST-LEVEE LOL [5, 15]: 1 (70 à 90); ACTIVITE DE POST-LEVEE SIN [6, 15]: 4 (10 à 30)
8 | O=C(O)c1cccnc1-c1n[nH]c(-c2ccc(Cl)cc2Cl)n1 [compound 43] | 3 (30 à 50) | 4 (10 à 30) | 3 (30 à 50) | 4 (10 à 30) | 3 (30 à 50) | 5 (O à 10) | 
9 | O=C(O)c1cccnc1-c1n[nH]c(-c2sc(Cl)c(Cl)c2Cl)n1 [compound 44] | 1 (70 à 90) | 2 (50 à 70) | 1 (70 à 90) | 3 (30 à 50) | 0 (90 à 100) | 4 (10 à 30) | 
10 | O=C(O)c1cccnc1-c1n[nH]c(Cc2ccccc2)n1 [compound 45] | 3 (30 à 50) | 3 (30 à 50) | 3 (30 à 50) | 3 (30 à 50) | 2 (50 à 70) | 2 (50 à 70) | 
11 | O=C(O)c1cccnc1-c1n[nH]c(-c2cccc(Cl)c2)n1 [compound 48] | 1 (70 à 90) | 3 (30 à 50) | 3 (30 à 50) | 3 (30 à 50) | 2 (50 à 70) | 2 (50 à 70) | 
12 | O=C(O)c1cccnc1-c1n[nH]c(-c2cc(Cl)cc(Cl)c2)n1 [compound 50] | 0 (90 à 100) | 3 (30 à 50) | 2 (50 à 70) | 3 (30 à 50) | 0 (90 à 100) | 0 (90 à 100) | 
13 | Cc1ccccc1-c1nc(-c2ncccc2C(=O)O)n[nH]1 [compound 54] | 3 (30 à 50) | 2 (50 à 70) | 3 (30 à 50) | 0 (90 à 100) | 3 (30 à 50) | 1 (70 à 90) | 
14 | O=C(O)c1cccnc1-c1n[nH]c(C=Cc2ccccc2)n1 [compound 67] | 2 (50 à 70) | 0 (90 à 100) | 2 (50 à 70) | 3 (30 à 50) | 0 (90 à 100) | 2 (50 à 70) | 
15 | O=C(O)c1cccnc1-c1n[nH]c(-c2cc(Cl)ccc2Cl)n1 [compound 73] | 3 (30 à 50) | 3 (30 à 50) | 2 (50 à 70) | 3 (30 à 50) | 2 (50 à 70) | 3 (30 à 50) | 
16 | CN(C)S(=O)(=O)n1c(-c2ncccc2C(=O)O)nc2ccccc21 [compound 75, 2-(1-N,N diméthylsulfamoyl 2-benzimidazolyl) 3-carboxy pyridine] |  |  |  |  |  |  | ACTIVITE DE POST-LEVEE SOL [1, 15]: 5 (O à 10); ACTIVITE DE POST-LEVEE ECH [2, 15]: 0 (90 à 100); ACTIVITE DE POST-LEVEE DIG [3, 15]: 0 (90 à 100); ACTIVITE DE POST-LEVEE IPO [4, 15]: 4 (10 à 30); ACTIVITE DE POST-LEVEE SIN [6, 15]: 5 (O à 10); ACTIVITE HERBICIDE DE POST LEVEE S O L [7, 16]: 5 (O à 10); ACTIVITE HERBICIDE DE POST LEVEE S E S [9, 16]: 5 (O à 10); ACTIVITE HERBICIDE DE POST LEVEE V I O [11, 16]: 4 (10 à 30); ACTIVITE HERBICIDE DE POST LEVEE X A N [12, 16]: 5 (O à 10); ACTIVITE HERBICIDE DE POST LEVEE I P O ([13]; weed, post-emergence, dose 1 kg/ha, 24 days, score 0-5): 5 (O à 10)
17 | CN(C)S(=O)(=O)n1c(-c2ncccc2C(=O)O)nc2ccccc21 [compound 121] | 5 (O à 10) | 3 (30 à 50) | 0 (90 à 100) | 4 (10 à 30) |  | 5 (O à 10) | 

Reference: patent EP0429372A1, “2-Azolyl nicotinate derivatives as herbicides” (RHONE-POULENC AGROCHIMIE, priority 1989, dated 1991)
